Experiments:
[1] = tested on: E. coli; assay: Bactericidal assay, E. coli colony count after 30 min incubation with peptide and CuSO4; type: cell-based
Method: Bovine TAP was synthesized and purified to a single HPLC peak. Bactericidal assay was carried out by growing wild-type E. coli in tryptic soy broth (TSB) until the OD600 reached 0.2. Cells were then diluted in 50 μl 10 mM NaPO4 buffer, pH 7.4, to 4×10^5 cells/ml. […] Five Al samples were plated on L-agar, and the plates were incubated at 37° C. overnight. Colonies were then counted.

[2] = tested on: Pseudomonas aeruginosa; assay: Bactericidal assay, Pseudomonas strain from a cystic fibrosis patient, with TAP, NaCl and CuSO4; type: cell-based
Method: Bovine TAP of 38 amino acids was chemically synthesized by the method of Duclohier ((1989) Biophys. J. 5:1017-1021), and purified to a single peak by HPLC. Bactericidal assay was carried out by growing a wild-type Pseudomonas strain obtained from a cystic fibrosis patient in TSB until the OD600 reached 0.2. Cells were then diluted in 50 μl 10 mM NaPO4 buffer, pH 7.4, to 4×10^5 cells/ml. […] TAP, varying concentrations of NaCl, and 0.1 mM CuS04 were added, and the mixtures were incubated for 30 minutes at 37° C. Five μl samples were taken and plated on L-agar, and the plates were incubated at 37° C. overnight. Colonies were then counted.

[3] = peptide 10 ug/ml, CuSO4 0 mM, 30 min 37 C
[4] = peptide 10 ug/ml, CuSO4 0.01 mM, 30 min 37 C
[5] = peptide 10 ug/ml, CuSO4 0.1 mM, 30 min 37 C
[6] = NaCl 0 mM, TAP 0 μg/ml, CU 0 mM as printed (second such line)
[7] = NaCl 15 mM, TAP 0 μg/ml, CU 0.1 mM
[8] = NaCl 25 mM, TAP 0 μg/ml, CU 0.1 mM
[9] = NaCl 50 mM, TAP 0 μg/ml, CU 0.1 mM
[10] = NaCl 75 mM, TAP 0 μg/ml, CU 0.1 mM
[11] = NaCl 15 mM, TAP 10 μg/ml, CU 0.1 mM
[12] = NaCl 25 mM, TAP 10 μg/ml, CU 0.1 mM
[13] = NaCl 50 mM, TAP 10 μg/ml, CU 0.1 mM
[14] = NaCl 75 mM, TAP 10 μg/ml, CU 0.1 mM

magainin was tested, and the “effect of CuSO4 on the antimicrobial activity of the peptide” value ([1]; 0.01 to 0.1 mM CuS04) was “enhanced the antimicrobial activity”, the “# COLONIES” value ([1]; peptide 10 ug/ml, Cu 0 mM) was 1895 and the “# COLONIES” value ([1]; peptide 10 ug/ml, Cu 0.01 mM) was 1654. For the same compound, the “# COLONIES” value ([1]; peptide 10 ug/ml, Cu 0.1 mM) was 975, the “% SURVIVAL” value [1, 3] was 80% and the “% SURVIVAL” value [1, 4] was 70%. The “% SURVIVAL” value [1, 5] was 41%.

In the case of `O=S(=O)([O-])[O-].[Cu+2]` [CuSO4, copper sulfate (cupric sulfate)], the “% SURVIVAL” value ([1]; No Peptide, CuSO4 0.01 mM) was 62%, the “% SURVIVAL” value ([1]; No Peptide, CuSO4 0.1 mM) was 22% and the “% SURVIVAL” value ([1]; No Peptide, CuSO4 1 mM) was 16%. The “% SURVIVAL” value ([1]; No Peptide, CuSO4 10 mM) was 7%, the “# COLONIES” value ([1]; No Peptides, CuSO4 0.01 mM) was 1776 and the “# COLONIES” value ([1]; No Peptides, CuSO4 0.1 mM) was 640. The “# COLONIES” value ([1]; No Peptides, CuSO4 1 mM) was 443, the “# COLONIES” value ([1]; No Peptides, CuSO4 10 mM) was 211 and the “# COLONIES” value [2, 6] was 534. For the same compound, the “% SURVIVAL” value [2, 6] was 35%, the “# COLONIES” value [2, 7] was 580 and the “% SURVIVAL” value [2, 7] was 39%. For the same compound, the “# COLONIES” value [2, 8] was 513, the “% SURVIVAL” value [2, 8] was 34% and the “# COLONIES” value [2, 9] was 696. For the same compound, the “% SURVIVAL” value [2, 9] was 46%, the “# COLONIES” value [2, 10] was 796 and the “% SURVIVAL” value [2, 10] was 53%.

“Tracheal Antimicrobial Peptide (NPVSCVRNKGICVPIRCPGSMKQIGTCVGRAVKCCRKK; UniProt P25068 27-64, looked up) [TAP, airway beta-defensin; bovine TAP of 38 amino acids, chemically synthesized and purified to a single HPLC peak]” was tested, and the “% SURVIVAL” value ([1]; TAP 1 ug/ml, CuSO4 0 mM) was 40%, the “% SURVIVAL” value ([1]; TAP 1 ug/ml, CuSO4 0.01 mM) was 8% and the “% SURVIVAL” value ([1]; TAP 1 ug/ml, CuSO4 0.1 mM) was 2%. For the same compound, the “# COLONIES” value ([1]; peptide 10 ug/ml, Cu 0 mM) was 119, the “# COLONIES” value ([1]; peptide 10 ug/ml, Cu 0.01 mM) was 106 and the “# COLONIES” value ([1]; peptide 10 ug/ml, Cu 0.1 mM) was 32. The “% SURVIVAL” value [1, 3] was 9%, the “% SURVIVAL” value [1, 4] was 8% and the “% SURVIVAL” value [1, 5] was 2%. For the same compound, the “# COLONIES” value [2, 11] was 233, the “% SURVIVAL” value [2, 11] was 15% and the “# COLONIES” value [2, 12] was 89. The “% SURVIVAL” value [2, 12] was 6%, the “# COLONIES” value [2, 13] was 242 and the “% SURVIVAL” value [2, 13] was 16%. For the same compound, the “# COLONIES” value [2, 14] was 363, the “% SURVIVAL” value [2, 14] was 24% and the “killing of Pseudomonas by the combination of copper ions and TAP versus TAP alone” value ([2]; copper 0.1 mM, increasing NaCl concentrations) was “more effective than TAP alone”.

Source: patent US6042848A, “Enhancement of antimicrobial peptide activity by metal ions” (The Board of Trustees of Southern Illinois University, priority 1997, dated 2000)
